Assay [1] deals with thermostable DNA polymerase. The following applies: Latham et al., Nucleic Acids Res. 1994; cited from earlier work.
Assay [2] has as its system thermostable DNA polymerases (Taq, Vent, Pfu, rTh). The assay is described as follows: PCR assays with modified dUTP in place of dTTP, panel of thermostable DNA polymerases. It counts as biochemical. The following applies: for substrate for thermostable DNA polymerases in PCR: typical PCR conditions, analog in place of dTTP, all polymerases tested (Taq, Vent, Pfu, rTh), 519 base pair product; for incorporation of modified base in PCR under varied conditions: variation of Mg+2 (15 to 30 mM) and analog concentrations. The text has this:
(§1) Commercially available thermostable DNA polymerases from […] organisms were studied; Taq from Thermus aquaticus, Vent from Thermococcus litoralis, Pfu from Pyrococcus furiosus, and rTh from Thermus thermophilus. […] Homogeneous incorporation of these derivatives in PCR is not possible due to chain termination, see 11c for discussion of derivatives in PCR: a) M. Shimkus, J. Levy, T. Herman, Proc. Natl. Acad. Sci. U.S.A. 1985, 82, 2593-7; b) B. L. Iverson, P. B. Dervan, J Am. Chem. Soc. 1987, 109, 1241-3. and ref. 10; c) H. Yu, J. Chao, D. Patek, R. Mujumdar, A. S. Waggoner, Nucleic Acids Res. 1994, 22, 3226-32. Successful PCR with this template requires incorporation of 246 modified bases including a single stretch of 8 contiguous thymidines.
(§2) Compound 3 was derivatized with three different N-hydroxysuccinimide esters to prepare Compounds 4a-c (Scheme 2 FIG. 3). […] To test this structure-activity relationship, 4e-4g maintaining the a,b-unsaturated linker arm common to 4a, were also prepared (Scheme 2, FIG. 3). […] Compound 4g, with a free amino group, was used as a template for the synthesis of Compounds 4h and 4i.

A further assay deals with T1, rTh polymerase (Thermus thermophilus, UniProt P52028).
T1 construct: purchased
T1 sequence (P52028 whole entry): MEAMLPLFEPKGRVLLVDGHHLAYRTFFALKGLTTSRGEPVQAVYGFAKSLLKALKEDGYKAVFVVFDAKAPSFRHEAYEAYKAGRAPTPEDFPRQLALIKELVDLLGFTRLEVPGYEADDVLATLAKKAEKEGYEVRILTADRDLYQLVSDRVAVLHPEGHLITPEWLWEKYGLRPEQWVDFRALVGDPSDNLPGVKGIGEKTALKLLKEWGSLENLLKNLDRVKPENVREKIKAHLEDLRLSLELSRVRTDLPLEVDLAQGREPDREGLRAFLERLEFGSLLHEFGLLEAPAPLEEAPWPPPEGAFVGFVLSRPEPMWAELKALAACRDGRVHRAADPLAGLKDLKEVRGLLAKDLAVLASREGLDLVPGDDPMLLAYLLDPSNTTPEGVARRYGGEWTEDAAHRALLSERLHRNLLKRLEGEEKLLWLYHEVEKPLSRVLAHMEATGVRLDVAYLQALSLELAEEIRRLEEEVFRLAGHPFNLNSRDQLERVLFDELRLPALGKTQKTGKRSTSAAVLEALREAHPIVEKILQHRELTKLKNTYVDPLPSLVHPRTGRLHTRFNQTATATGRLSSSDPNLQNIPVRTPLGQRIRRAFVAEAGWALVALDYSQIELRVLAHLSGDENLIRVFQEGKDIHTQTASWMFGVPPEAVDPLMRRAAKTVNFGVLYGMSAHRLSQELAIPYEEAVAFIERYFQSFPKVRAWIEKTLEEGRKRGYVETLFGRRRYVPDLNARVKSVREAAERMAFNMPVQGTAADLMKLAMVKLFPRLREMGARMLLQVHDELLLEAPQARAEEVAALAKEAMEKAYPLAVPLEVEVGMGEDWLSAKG
Kind of assay: PCR assay with modified dUTP in place of dTTP, rTh polymerase. Type of assay: biochemical. The following applies: analog in place of dTTP, 519 base pair product.
Excerpt: as §1, §2

Assay [3] concerns the target T2, Superscript II reverse transcriptase (Moloney murine leukemia virus, UniProt P03355, D1183G/D1242N/E1221Q).
T2 construct: Superscript II reverse transcriptase; purchased Gibco/BRL
The assay is described as follows: Reverse transcriptase template-directed extension assay. Type of assay: biochemical. The following applies: 0.4 mM analog; 0.2 mM dATP, dCTP, dGTP; 37 C. How it is done:
Reverse transcriptases may also be utilized in conjunction with PCR in in vitro selection schemes of DNA enzymes. […] The specificity of this reverse transcriptase is broader and not predictive of the structural requirements of the thermostable polymerases.
Reverse transcriptase assays: Template-directed extension was performed by addition of 10 pmol template DNA 5'-GCTAAAAAAGCTGCTAAAAAGCTGCTAAAAGCTGCTAAAGCTAAGCTAGCTCCCTTTAGTGAGGGTTAATTGC-3' (SEQ ID NO. 1) to 10 pmol primer DNA 5'-GCAATTAACCCTCACTAAAGGG-3' (SEQ ID NO 2) followed by Superscript II reverse transcriptase (Gibco, 200 units.(1^-1). The reaction (25 (I) contained 0.2 mM of dATP, dCTP, dGTP and 0.4 mM analog. Trace quantities of ((-^32 P(-dATP was included to allow the extension efficiency to be monitored. All components except reverse transcriptase were combined, incubated at 90° C. and cooled to 37° C. to anneal the primer. The enzyme (600 units) was added and the reaction mixture was incubated at 37 (C. The DNA was precipitated in ethanol and then dissolved in gel-loading buffer containing urea and heated for 3 min at 90° C. After separation on a 10% denaturing acrylarnide gel, the samples were further analyzed with a Phosphorimager.

Consider `CCCC#Cc1cn([C@H]2C[C@H](O)[C@@H](COP(=O)(O)OP(=O)(O)OP(=O)(O)O)O2)c(=O)[nH]c1=O` [5-(1-pentynyl)-2' deoxyuridine triphosphate], for which the “substrate for a thermostable DNA polymerase” value in assay [1] is listed as “good substrate”. With `NCC=Cc1cn([C@H]2C[C@H](O)[C@@H](COP(=O)(O)OP(=O)(O)OP(=O)(O)O)O2)c(=O)[nH]c1=O` [Compound 3, C-5(3-aminopropenyl)-2'-deoxvuridinetriphosphate], in assay [2], the “criteria for in vitro selection: substrate for thermostable polymerases and product serves as template for multiple cycles of PCR amplification” value was “criteria were met”; the “substrate for thermostable DNA polymerases in PCR” value was “acted as a substrate”. At rTh polymerase, the “incorporation / substrate in PCR with rTh polymerase (only polymerase of the panel that accepts it)” value was “incorporation into the 519 base pair product only with rTh polymerase”. Turning to `O=C(/C=C/c1c[nH]cn1)NCC=Cc1cn([C@H]2C[C@H](O)[C@@H](COP(=O)(O)OP(=O)(O)OP(=O)(O)O)O2)c(=O)[nH]c1=O` [Compound 4a], in assay [2], the “criteria for in vitro selection: substrate for thermostable polymerases and product serves as template for multiple cycles of PCR amplification” value is on record as “criteria were met”; the “substrate for thermostable DNA polymerases in PCR” value was “excellent substrate for all the polymerases tested”. In the case of `O=C(O)c1ccc(C(=O)NC/C=C/c2cn([C@H]3C[C@H](O)[C@@H](COP(=O)(O)OP(=O)(O)OP(=O)(O)O)O3)c(=O)[nH]c2=O)cc1` [Compound 4b], the “incorporation of modified base in PCR under varied conditions” value in assay [2] is reported as “failed to define conditions that allowed for incorporation”.

Regarding `O=C(O)c1ccccc1-c1ccccc1C(=O)NCC=Cc1cn([C@H]2C[C@H](O)[C@@H](COP(=O)(O)OP(=O)(O)OP(=O)(O)O)O2)c(=O)[nH]c1=O` [Compound 4c], in assay [2], the “incorporation of modified base in PCR under varied conditions” value was “failed to define conditions that allowed for incorporation”. Besides, the “substrate of Superscript II reverse transcriptase in template directed synthesis” value in assay [3] is “all but 4c and 4h were substrates”.

As to `O=C(CCc1c[nH]cn1)NC/C=C/c1cn([C@H]2C[C@H](O)[C@@H](COP(=O)(O)OP(=O)(O)OP(=O)(O)O)O2)c(=O)[nH]c1=O` [Compound 4d], the “substrate for thermostable DNA polymerases in PCR” value in assay [2] is on record as “No conditions could be defined with any of the polymerases that allowed for PCR”. Still for that read-out and setting: for `NCc1cccc(/C=C/C(=O)NC/C=C/c2cn([C@H]3C[C@H](O)[C@@H](COP(=O)(O)OP(=O)(O)OP(=O)(O)O)O3)c(=O)[nH]c2=O)c1` [Compound 4g] the value was “robust substrate for PCR as compared to 3”. Turning to `O=C(O)CCCC(=O)NCc1cccc(/C=C/C(=O)NC/C=C/c2cn([C@H]3C[C@H](O)[C@@H](COP(=O)(O)OP(=O)(O)OP(=O)(O)O)O3)c(=O)[nH]c2=O)c1` [Compound 4h], the “substrate for thermostable DNA polymerases in PCR” value in assay [2] is “good substrate for all thermostable polymerases tested”. Also, the “substrate of Superscript II reverse transcriptase in template directed synthesis” value in assay [3] is “all but 4c and 4h were substrates”. Turning to `CC(=O)N[C@@H](Cc1c[nH]cn1)C(=O)NCc1cccc(/C=C/C(=O)NC/C=C/c2cn([C@H]3C[C@H](O)[C@@H](COP(=O)(O)OP(=O)(O)OP(=O)(O)O)O3)c(=O)[nH]c2=O)c1` [Compound 4i], the “incorporation / substrate in PCR with rTh polymerase (only polymerase of the panel that accepts it)” value at rTh polymerase is recorded as “substrate only for rTh polymerase”.

The values above are taken from patent US6175001A, “Functionalized pyrimidine nucleosides and nucleotides and DNA's incorporating same” (The Scripps Research Institute, priority 1998, dated 2001).
